The record followed here is US8029980B2, “Identification and use of agents that modulate oncogenic transcription agent activity” (The Board of Trustees of the University of Illinois, priority 2006, dated 2011).

In one assay the target is T1, FoxM1 (Homo sapiens, UniProt Q08050).
T1 construct: expressed in transfected cells; host or cells: U2OS clone C3 / C3-Luc
T1 sequence (Q08050 1-748 isoform Q08050-2): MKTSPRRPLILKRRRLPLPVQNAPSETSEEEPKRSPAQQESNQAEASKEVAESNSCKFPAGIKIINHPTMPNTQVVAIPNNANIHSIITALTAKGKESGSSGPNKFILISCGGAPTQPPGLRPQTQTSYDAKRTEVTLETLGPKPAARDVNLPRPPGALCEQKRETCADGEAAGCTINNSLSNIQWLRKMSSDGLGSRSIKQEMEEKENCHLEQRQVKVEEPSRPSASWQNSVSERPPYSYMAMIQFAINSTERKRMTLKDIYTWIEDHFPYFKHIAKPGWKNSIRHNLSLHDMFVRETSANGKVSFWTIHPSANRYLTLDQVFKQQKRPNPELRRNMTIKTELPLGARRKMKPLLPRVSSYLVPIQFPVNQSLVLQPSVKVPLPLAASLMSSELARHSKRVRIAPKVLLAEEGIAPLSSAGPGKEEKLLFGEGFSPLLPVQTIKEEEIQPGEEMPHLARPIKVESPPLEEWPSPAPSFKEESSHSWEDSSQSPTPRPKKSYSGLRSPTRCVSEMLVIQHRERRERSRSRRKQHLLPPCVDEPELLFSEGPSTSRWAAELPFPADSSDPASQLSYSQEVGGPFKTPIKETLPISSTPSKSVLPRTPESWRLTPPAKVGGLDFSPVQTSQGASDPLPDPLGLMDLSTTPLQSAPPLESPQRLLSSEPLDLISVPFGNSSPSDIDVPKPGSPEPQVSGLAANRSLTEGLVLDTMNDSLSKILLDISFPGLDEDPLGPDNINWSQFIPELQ
Briefly: FoxM1-responsive firefly luciferase reporter assay in C3-Luc cells. The note with it: C3-Luc cells, 1 μg/mL doxycycline (60-fold induction), 5 μM compound, 24 hrs. It is filed as cell-based. The protocol: FIG. 6. Thiostrepton and Siomycin A both inhibit FoxM1 transcriptional activity. […] The next day, the luciferase activity was measured with the Dual-Luciferase reporter assay system (E1910; Promega) according to the manufacturer's instructions.
The development of U2OS clone C3 cell line with doxycyclin inducible FoxM1-GFP fusion protein has been described before (17). This cell line was transfected with a plasmid expressing firefly luciferase under the control of 6× FoxM1 responsive (FoxRE) promoter (17), along with pcDNA3.1 (Invitrogen, Carlsbad, Calif.) plasmid that expresses neomycin phospho-transferase. […] This clone was further transfected with pRL-CMV (Promega) that expresses renilla luciferase along with pLPCX-puro (Clontech), and the cells were selected in 2 μg/ml puromycin. This cell line which expresses FoxM1-dependent firefly luciferase and constitutive renilla luciferase was named as C3-Luc and used for the screening of compound libraries (Challenge set and Diversity set) from the National Cancer Institute.
For high-throughput screening, the C3-Luc cells were grown in 96-well plates and treated overnight with a combination of 1 μg/ml doxycycline and 10 μM of compounds from the library. Next day, the firefly and renilla luciferase activities were measured with the Dual Glo system (E2940; Promega).
For the other luciferase assay experiments, the cells were treated as indicated in the FIG. 1 legend and the luciferase activity was measured using the Dual Luciferase reporter assay system (E1910; Promega) according to the manufacturer's instructions.

Assay [1] relates to Breast cancer cell lines BT-474, MDA-MB-231, T-47D and ZR-75-1. Briefly: FoxM1 and cleaved caspase-3 immunoblot in breast cancer cell lines. In kind it is cell-based, human. Particulars: 5 μM, 48 hrs. As to the method:
FIG. 7. […] Breast cancer cell lines BT-474, MDA-MB-231, T-47D and ZR-75-1 were treated with 5 μM Siomycin and thiostrepton, respectively, for 48 hrs and the cell lysates were analyzed for the levels of FoxM1 and cleaved caspase-3 by immunoblotting.
(§1) Immunoblotting was performed as described (18-20) with antibodies specific for p21 (556431; BD Pharmingen), survivin (sc-10811; Santa Cruz), cleaved caspase-3 (9664; Cell Signaling), and β-actin (A5441; Sigma) antibodies. Immunoblot for FoxM1 was done using the previously generated rabbit antisera (2), and phospho-FoxM1 was detected using the MPM2 monoclonal antibody (Upstate Biotechnology) which recognizes the phosphorylated protein sequence phosphoserine/phosphothreonine-proline.

Assay [2] deals with Liver cancer cell lines Huh7, Hep-3B and SK-Hep. In words: FoxM1 and cleaved caspase-3 immunoblot in liver cancer cell lines. The note with it: 10 μM, 48 hrs. In kind it is cell-based, human. The protocol: FIG. 9. […] Liver cancer cell lines Huh7, Hep-3B and SK-Hep were treated with 10 μM Siomycin A and thiostrepton, respectively, for 48 hrs, and the cell lysates were analyzed for the levels of FoxM1 and cleaved caspase-3 by immunoblotting.
as §1
First, we treated liver cancer cell lines Huh7, Hep-3B and SK-Hep that have deleted or mutant p53 with these compounds for 48 hrs, and the cell lysates were analyzed for the levels of FoxM1 and cleaved caspase-3 by immunoblotting.
A general note: Immunoblotting shows a protein as a band on a membrane.

Assay [3] relates to Leukemia cell lines CEM, HL60 and U937. In words: FoxM1 and cleaved caspase-3 immunoblot in leukemia cell lines. In kind it is cell-based, human. Particulars: 5 μM, 48 hrs. The protocol: FIG. 10. […] Leukemia cell lines CEM, HL60 and U937 were treated with 5 μM Siomycin A and thiostrepton, respectively, for 48 hrs and the cell lysates were analyzed for the levels of FoxM1 and cleaved caspase-3 by immunoblotting.
as §1
Next we treated leukemia cell lines with mutant p53 CEM, HL60 and U937 with 5 μM of these compounds for 48 hrs and the cell lysates were analyzed for the levels of FoxM1 and cleaved caspase-3 by immunoblotting.

In assay [4] the test system is NB7 and NB7-casp8 neuroblastoma cells. In words: FoxM1 and cleaved caspase-3 immunoblot in neuroblastoma cells. It is filed as cell-based. The note with it: 24 hrs. As to the method:
FIG. 11. […] Cells were treated with Siomycin A, thiostrepton or DMSO, harvested 24 hrs later and the lysates were used to determine proteins levels by immunoblotting with antibodies specific for FoxM1, cleaved caspase-3 and β-actin (AS441, Sigma).

SMILES strings stand for the structures. Entries after “also recorded” stand apart in the source; their conditions may differ.

As to `C=C(NC(=O)C(=C)NC(=O)c1csc(C2=N[C@@H]3c4csc(n4)[C@H]4NC(=O)c5csc(n5)[C@H]([C@](C)(O)[C@@H](C)O)NC(=O)[C@H]5CSC(=N5)/C(=C/C)NC(=O)[C@H]([C@@H](C)O)NC(=O)c5csc(n5)[C@]3(CC2)NC(=O)[C@H](C)NC(=O)C(=C)NC(=O)[C@H](C)NC(=O)[C@H]([C@@H](C)CC)N[C@@H]2C=Cc3c([C@H](C)O)cc(nc3[C@H]2O)C(=O)O[C@@H]4C)n1)C(N)=O` [thiostrepton], the “relative firefly luciferase activity (FoxM1 transcriptional activity)” value on FoxM1 is recorded as “efficiently reduced the value to basal levels”. The FoxM1 expression result in assay [1] was “stronger inhibitor of FoxM1; also recorded: inhibit FoxM1 expression”; in assay [3], “inhibit FoxM1 expression”. Besides, the “apoptosis (cleaved caspase-3)” value is on record as “more efficient inducer of apoptosis than Siomycin A; also recorded: induce apoptosis” in assay [1]; “induce apoptosis” in assay [2]; “induce apoptosis” in assay [3]; “induce apoptosis in these neuroblastoma cells independently from caspase-8” in assay [4] (NB7 and NB7 with reconstituted caspase-8). For the same compound, the FoxM1 protein expression result in assay [2] was “repress FoxM1 protein expression”; in assay [4] (immunoblot) it was “inhibit FoxM1 protein expression”.
